Measured values published in PMC6216040, “Repurposing of an old drug: In vitro and in vivo efficacies of buparvaquone against Echinococcus multilocularis” (International Journal for Parasitology: Drugs and Drug …, 2018).

System: E. multilocularis metacestodes
Test: PGI-assay: drug-induced damage on in vitro cultured metacestodes (Pathogen Box screening cascade and EC50)
Assay type: cell-based, Echinococcus multilocularis
Conditions: for PGI release, % of the Tx-100 control, 5d / PGI release, % of the Tx-100 control, 12d: 10 µM, singlets; for PGI release, % of the Tx-100 control, 5d / PGI release, % of Tx-100 control, average, 5d: 5 days of incubation; for PGI release, % of the Tx-100 control, 12d / PGI release, % of Tx-100 control, average, 12d: 12 days of incubation; for activity in the screen at 10 μM (confirmed in triplicates, >20% relative PGI release): 5 and 12 days
[1] = confirmatory screening at 10 µM in triplicates, values as % of Tx-100 control

Row | SMILES | PGI release, % of the Tx-100 control, 5d [%] | PGI release, % of the Tx-100 control, 12d [%] | further results
1 | O=C(Nc1ccc(N2CCNCC2)nc1)c1oc(-c2ccccc2)nc1C(F)(F)F [MMV024937] | 14.66 | 18.16 | 
2 | CS(=O)(=O)c1cccc(-c2cnc3[nH]cc(-c4ccc(CCC(=O)O)cc4)c3c2)c1 [MMV026020] | -2.92 | -0.12 | 
3 | Nc1nccc2ccc(Oc3ccncc3)cc12 [MMV026313] | -0.49 | -0.99 | 
4 | CCn1ncc2c(NC3CCOCC3)c(CNC(=O)c3ccnn3C)c(C)nc21 [MMV026356] | -0.13 | 0.36 | 
5 | OCc1ccc(-c2cncc(Nc3cccc(Cl)c3)c2)cc1 [MMV026468] | 9.97 | 54.98 | PGI release, % of Tx-100 control, average, 5d (1 µM, triplicates): 0.57%; PGI release, % of Tx-100 control, average, 12d (1 µM, triplicates): -1.50%; activity in the screen at 10 μM (confirmed in triplicates, >20% relative PGI release): active; PGI release, % of Tx-100 control, average, 5d [1]: 0.62%; PGI release, % of Tx-100 control, average, 12d [1]: 52.89%
6 | O=C(NCCc1ccccc1)c1cc(-c2cccnc2)cnc1NCC1CC1 [MMV026490] | -0.0463 | -0.43 | 
7 | CC(C)(C)CN1C(=O)C(c2ccccc2)(c2ccccc2)N=C1N [MMV026550] | 3.21 | 3.61 | 
8 | OCCc1ccc(Nc2nccc(-c3nnc4ccccn34)n2)cc1 [MMV028694] | 1.98 | 1.79 | 
9 | CC(C)(CN)c1nc(-c2ccc(Cl)c(O)c2)c(-c2ccnc(N)n2)[nH]1 [MMV030734] | -0.31 | -0.25 | 
10 | CNC(=O)C1Cc2c([nH]c3cc(Cl)ccc23)C2(CCN(CCc3ccccc3)CC2)N1 (stereo not drawn) [MMV031011] | 4.51 | 91.49 | PGI release, % of Tx-100 control, average, 5d [1]: -0.91%; PGI release, % of Tx-100 control, average, 12d [1]: -1.45%
11 | FC(F)(F)c1cccc(-c2nc3c(NCc4ccncc4)nccc3[nH]2)c1 [MMV032967] | 0.25 | -2.81 | 
12 | O=C1COCc2ccc(Br)cc2N1Cc1ccc(C(F)(F)F)cc1 [MMV032995] | 0.37 | 1.79 | 
13 | c1ccc(Oc2ccc(-c3cc(N4CCOCC4)n[nH]3)cc2)cc1 [MMV045105] | -0.42 | 0.07 | 
14 | COc1cc(C(F)(F)F)nc2ccc(C)c(N)c12 [MMV047015] | -0.69 | -0.79 | 
15 | N#Cc1ccc(-c2ccc(OCC(N)=O)cc2)cc1 [MMV053220] | -4.06 | -1.40 | 
16 | CC(=O)N1CCc2cc3nc(C)cc(C)c3cc21 [MMV054312] | 0.77 | -0.65 | 
17 | Cc1cc(C)nc(-n2nc(C)cc2Nc2ccccc2)n1 [MMV062221] | -5.83 | 1.28 | 
18 | Cc1nn(Cc2ccccc2)c(Cl)c1C(=O)NC1CCCCCC1 [MMV063404] | 0.0181 | 0.28 | 
19 | FC(F)(F)c1nnc2ccc(Cl)nn12 [MMV069458] | -0.54 | 0.02 | 
20 | O=C1N(Cc2cc3ccccc3s2)CC2CN(Cc3ccccc3)CCN12 (stereo not drawn) [MMV084603] | -3.64 | 0.62 | 
21 | O=C(Nc1cnc2ccccc2c1)c1cccc(-n2cnnn2)c1 [MMV084864] | -2.18 | -3.92 | 
22 | COc1cncc(-c2cncc(N3CCN(c4ccncc4)CC3)n2)c1 [MMV085071] | 0.27 | 0.48 | 
23 | O=C(C(Cc1c[nH]c2ccccc12)NS(=O)(=O)c1ccc(Cl)cc1)N1CCCCC1 (stereo not drawn) [MMV085210] | -0.40 | 0.0121 | 

Row | SMILES | PGI release, % of the Tx-100 control, 5d [%] | PGI release, % of the Tx-100 control, 12d [%] | further results
24 | CCCNC(=O)N1CCC2(CC1)CC(=O)c1cc(C)ccc1O2 [MMV085230] | -0.40 | -0.0743 | 
25 | N#Cc1ccc(-c2cnc(N)c(-c3ccc(C(N)=O)cc3)n2)cc1 [MMV085499] | 7.58 | 0.90 | 
26 | CCOC(=O)NC(=O)c1ccsc1NC(=O)c1nc2ccccc2s1 [MMV090930] | 11.85 | 28.09 | PGI release, % of Tx-100 control, average, 5d (1 µM, triplicates): 2.46%; PGI release, % of Tx-100 control, average, 12d (1 µM, triplicates): 6.26%; activity in the screen at 10 μM (confirmed in triplicates, >20% relative PGI release): active; PGI release, % of Tx-100 control, average, 5d [1]: 13.69%; PGI release, % of Tx-100 control, average, 12d [1]: 46.13%
27 | O=C(Nc1nnc(-c2ccc(Cl)cc2)o1)c1cccc(C(F)(F)F)c1 [MMV102872] | 32.35 | 28.26 | PGI release, % of Tx-100 control, average, 5d [1]: -0.31%; PGI release, % of Tx-100 control, average, 12d [1]: -1.19%
28 | CCC(C)NC(=O)c1ccc(NC(=O)C2(c3ccccc3)CCCC2)cc1 (stereo not drawn) [MMV146306] | -1.42 | -5.77 | 
29 | CCOC(=O)c1c(NC(=O)c2c(F)c(F)c(F)c(F)c2F)sc(C(N)=O)c1C [MMV153413] | 1.93 | 9.70 | 
30 | Cc1cc(Cl)ccc1NC(=O)CCc1ccc(S(=O)(=O)NCC(C)C)cc1 [MMV161996] | -0.05 | 0.10 | 
31 | CNC(=O)C1Cc2ccccc2N1C(=O)Cc1ccc(F)cc1 (stereo not drawn) [MMV188296] | -0.45 | -0.28 | 
32 | COc1ccc(C2(C(=O)Nc3ccc(Br)cc3)CCCC2)cc1 [MMV200748] | -1.03 | -1.33 | 
33 | COc1ccc(OC(C)C(=O)Nc2ccc(Cl)cc2C)cc1 (stereo not drawn) [MMV202458] | 0.0146 | 6.22 | 
34 | CCC(=O)Nc1ccccc1C(=O)Nc1ccccn1 [MMV202553] | -0.91 | 0.26 | 
35 | COc1cccc(NC(=O)c2c(NC(=O)c3cccnc3)sc3c2CCC3)c1 [MMV228911] | 6.25 | 18.91 | 
36 | COc1cccc(-n2nnnc2S(C)(=O)=O)c1 [MMV272144] | -0.69 | 0.11 | 
37 | COc1cccc(-c2cc3c(Nc4cccnc4)nccc3[nH]2)c1 [MMV392832] | 0.24 | -1.65 | 
38 | CN1CCN(c2nccc3[nH]c(-c4cccc(F)c4)cc23)CC1 [MMV393144] | -0.30 | 0.40 | 
39 | Cc1cc(=O)[nH]c(-n2nc(C)cc2C)n1 [MMV393995] | -1.49 | -4.16 | 
40 | CCc1nc2ccc(C(=O)NCc3ccc4c(c3)OCO4)cn2c1N(C)Cc1cccs1 [MMV407539] | -0.20 | 24.66 | PGI release, % of Tx-100 control, average, 5d [1]: -1.01%; PGI release, % of Tx-100 control, average, 12d [1]: 3.14%
41 | CCOc1ccccc1NC(C)C(=O)Nc1cc(C(F)(F)F)ccc1N1CCOCC1 (stereo not drawn) [MMV407834] | -0.40 | -0.68 | 
42 | COC(=O)c1c(NC(=O)c2c(F)c(F)c(F)c(F)c2F)sc2c1CCCCC2 [MMV461553] | 3.92 | 19.16 | 
43 | CC(C)(C)c1cnc(NC(=O)c2ccccc2O)s1 [MMV495543] | -1.40 | -5.38 | 
44 | CS(=O)(=O)Cc1nc2ccccc2oc1=O [MMV553002] | -3.93 | -1.57 | 
45 | c1ccc(-c2cc(N3CCCCC3)c3ccccc3n2)nc1 [MMV560185] | 0.52 | -0.29 | 
46 | CCN(CC)S(=O)(=O)c1ccc(C(=O)Nc2cc(C)nn2-c2nc(C)c(C)c(=O)[nH]2)cc1 [MMV595321] | -0.14 | -1.13 | 
